Reference: patent publication US4622417A, “L-aminodicarboxylic-(O-cycloalkyl)-L-aminocarboxylate alkyl ester sweeteners” (General Foods Corporation, priority 1984, dated 1986)

Tested on: panel of tasters
Assay: Sensory evaluation of sweetness: taste panel matches aqueous solutions of the compound to sucrose standard solutions (sucrose equivalency)
Type: in vivo
Details: for Sucrose Equivalent: aqueous solution
From the text: A taste procedure for determination of sweetness merely involves the determination of sucrose equivalency. Sucrose equivalence for sweeteners are readily determined. The amount of a sweetener that is equivalent to a given weight percent sucrose can be determined by having a panel of tasters taste solutions of a sweetener at known concentrations and match its sweetness to standard solutions of sucrose. The following sensory evaluations were obtained by a panel of experts using known weight percent aqueous solutions of the above compound matched to sucrose standard solutions as previously described.

[1] = 0.005% concentration of compound
[2] = 0.01% concentration of compound
[3] = 0.025% concentration of compound
[4] = 0.05% concentration of compound
[5] = 0.0025% concentration of compound
[6] = 0.02% concentration of compound
[7] = 0.04% concentration of compound

SMILES | Sweetness ratio (Compound:Sucrose) [1] | Sucrose Equivalent [1] [%] | Sweetness ratio (Compound:Sucrose) [2] | Sucrose Equivalent [2] [%] | Sweetness ratio (Compound:Sucrose) [3] | Sucrose Equivalent [3] [%] | also measured
COC(=O)[C@H](COC1(C)CCCC1)NC(=O)[C@@H](N)CC(=O)O [I, L-aspartyl-O-(1-methylcyclopentyl)-L-serine methyl ester] | 500 | 2.5 | 500 | 5 | 400 | 10 | Sucrose Equivalent [4]: 12%; temporal and sensory qualities (determined by the panel of experts): excellent temporal and sensory qualities
COC(=O)[C@H](COC1(C)CCC1)NC(=O)[C@@H](N)CC(=O)O [Example 3, L-aspartyl-O-(1-methylcyclobutyl)-L-serine methyl ester] | – | – | 200 | 2 | – | – | Sweetness ratio (Compound:Sucrose) [4]: 160; Sucrose Equivalent [4]: 8%
COC(=O)[C@H](COC1C(C)(C)CCC1(C)C)NC(=O)[C@@H](N)CC(=O)O [Example 10, α-L-Aspartyl-O-2,2,5,5-tetramethylcyclopentyl-L-serine methyl ester] | 1000 | 5 | 800 | 8 | – | – | Sweetness ratio (Compound:Sucrose) [5]: 1200; Sucrose Equivalent [5]: 3%
COC(=O)[C@H](COC1CCCCC1)NC(=O)[C@@H](N)CC(=O)O [cyclohexyl, α-L-aspartyl-O-(cyclohexyl)-L-serine methyl ester] | – | – | 120 | 1.2 | 127 | 3.2 | –
COC(=O)[C@H](CO[C@@]1(C)CCCC[C@H]1C)NC(=O)[C@@H](N)CC(=O)O (single isomer, unassigned) [Example 4 CIS ISOMER, L-aspartyl-O-(cis-1,2-dimethylcyclohexyl)-L-serine methyl ester] | 400 | 2.0 | 400 | 4.0 | – | – | Sucrose Equivalent (0.005% concentration of compound, listed as Cis-1,2-dimethylcyclohexyl): 2%; Sucrose Equivalent (0.01% concentration of compound, listed as Cis-1,2-dimethylcyclohexyl): 4%; Sweetness ratio (Compound:Sucrose) [6]: 350; Sucrose Equivalent [6]: 7.0%; Sucrose Equivalent (0.02% concentration of compound, listed as Cis-1,2-dimethylcyclohexyl): 7%
COC(=O)[C@H](COC1CCCC1(C)C)NC(=O)[C@@H](N)CC(=O)O (stereo partly drawn) [2,2-dimethylcyclopentyl, α-L-aspartyl-O-(2,2-dimethylcyclopentyl)-L-serine methyl ester] | 600 | 3 | 530 | 5.3 | 360 | 9 | –
COC(=O)[C@H](COC1CCCC1C)NC(=O)[C@@H](N)CC(=O)O (stereo partly drawn) [trans-2-methylcyclopentyl, L-aspartyl-[O-(2-methylcyclopentyl)]-L-serine methyl ester] | – | – | 300 | 3 | 212 | 5.3 | –
CCC1(OC[C@H](NC(=O)[C@@H](N)CC(=O)O)C(=O)OC)CCCC1 [Example 5, L-aspartyl-O-(1-ethylcyclopentyl)-L-serine methyl ester] | 400 | 2 | 400 | 4 | – | – | Sweetness ratio (Compound:Sucrose) [6]: 300; Sucrose Equivalent [6]: 6%
COC(=O)[C@H](COC1(C)CCCCC1)NC(=O)[C@@H](N)CC(=O)O [Example 2, L-aspartyl-O-(1-methylcyclohexyl)-L-serine methyl ester] | 400 | 2 | 450 | 4.5 | 340 | 8.5 | –
COC(=O)[C@H](COCCC1CC2CCC1C2)NC(=O)[C@@H](N)CC(=O)O (stereo partly drawn) [2-norbornylethyl, α-L-Aspartyl-O-2-norbornylethyl-L-serine methyl ester] | – | – | – | – | – | – | Sweetness ratio (Compound:Sucrose) [7]: 105; Sucrose Equivalent [7]: 4.2%
COC(=O)[C@H](COC1CCCC1)NC(=O)[C@@H](N)CC(=O)O [cyclopentyl, α-L-aspartyl-O-(cyclopentyl)-L-serine methyl ester] | 300 | 1.5 | 230 | 2.3 | 180 | 4.5 | –
COC(=O)[C@H](COC1CC2CCC1(C)C2(C)C)NC(=O)[C@@H](N)CC(=O)O (stereo partly drawn) [Example 11, α-L-Aspartyl-O-1-bornyl-L-serine methyl ester] | 200 | 1 | 250 | 2.5 | 180 | 4.5 | –
COC(=O)[C@H](COCCC12C=CC(CC1)C2)NC(=O)[C@@H](N)CC(=O)O (stereo partly drawn) [2-(4-norbornenyl)ethyl, α-L-Aspartyl-O-[2-(4-norbornenyl)ethyl]-L-serine methyl ester] | – | – | – | – | – | – | Sweetness ratio (Compound:Sucrose) [4]: 117; Sucrose Equivalent [4]: 5.8%
COC(=O)[C@H](COC1CCCCC1C)NC(=O)[C@@H](N)CC(=O)O (stereo partly drawn) [2-cis-methylcyclohexyl, α-L-aspartyl-O-(2-methylcyclohexyl)-L-serine methyl ester] | 360 | 1.8 | 320 | 3.2 | 240 | 6 | –
COC(=O)[C@H](COC1(C)CC=CCC1)NC(=O)[C@@H](N)CC(=O)O (stereo partly drawn) [Example 7, L-aspartyl-O-(1-methylcyclohex-3-enyl)-L-serine methyl ester] | 400 | 2 | 250 | 2.5 | 160 | 4 | –
CCOC(=O)[C@H](COC1(C)CCCC1)NC(=O)[C@@H](N)CC(=O)O [α-L-Aspartyl-O-(1-methylcyclopentyl)-L-serine ethyl ester] | – | – | – | – | – | – | sweetness equivalent (in vivo): 150 x sucrose
COC(=O)[C@H](COC(C)(C)C1CC=C(C)CC1)NC(=O)[C@@H](N)CC(=O)O (stereo partly drawn) [Example 8C, α-L-aspartyl-O-[1,1-dimethyl-1-(4-methylcyclohex-3-enyl)methyl]-L-serine methyl ester] | – | – | 220 | 2.2 | 208 | 5.2 | –
COC(=O)[C@H](COC1(C)CCCCCC1)NC(=O)[C@@H](N)CC(=O)O [Example 12, α-L-aspartyl-O-(1-methyl-cycloheptyl)-L-serine methyl ester] | – | – | 200 | 2 | – | – | Sweetness ratio (Compound:Sucrose) [4]: 120; Sucrose Equivalent [4]: 6%
COC(=O)[C@H](CO[C@]1(C)CCCC[C@H]1C)NC(=O)[C@@H](N)CC(=O)O (single isomer, unassigned) [Example 4 TRANS ISOMER, L-aspartyl-O-(trans-1,2-dimethylcyclohexyl)-L-serine methyl ester] | 300 | 1.5 | 300 | 3.0 | – | – | Sucrose Equivalent (0.01% concentration of compound, listed as trans-1,2-dimethylcyclohexyl): 3%; Sweetness ratio (Compound:Sucrose) [6]: 250; Sucrose Equivalent [6]: 5.0%; Sucrose Equivalent (0.02% concentration of compound, listed as trans-1,2-dimethylcyclohexyl): 5%
COC(=O)[C@H](COC(C)(C)C1CCC(C)CC1)NC(=O)[C@@H](N)CC(=O)O (stereo partly drawn) [Example 8D, α-L-aspartyl-O-[1,1-dimethyl-1-(4-methylcyclohexyl)methyl]-L-serine methyl ester] | – | – | – | – | 240 | 6 | Sucrose Equivalent (Sensory Evaluations, Example 8) (0.01% concentration): 2.2; Sucrose Equivalent (Sensory Evaluations, Example 8) (0.025% concentration): 5.2; Sweetness ratio (Compound:Sucrose) [4]: 220; Sucrose Equivalent [4]: 11%
